Laboratory results: article PMC10888103, “Enhanced High-Fructose Corn Syrup Production: Immobilizing Serratia marcescens Glucose Isomerase on MOF (Co)-525 Reduces Co^2+ Dependency in Glucose Isomerization to Fructose” (Foods, 2024)

Test system: T1, Serratia marcescens glucose isomerase (SmGI)
T1 construct: gene xylA; native, from S. marcescens lysate; 70 °C heat step and 10 kD ultrafiltration only (no chromatography); main SDS-PAGE band about 60 kD
Assay: fructose formation by fructose assay kit, Lineweaver-Burk; heat-treated, ultrafiltered extract
Type: biochemical
Settings: free enzyme, no added Co2+; 60 °C, 1 h; glucose 2.5-400 mM; pH of kinetic assay not stated
Source text: fructose formation by fructose assay kit, Lineweaver-Burk; heat-treated, ultrafiltered extract on Serratia marcescens glucose isomerase (SmGI)

OC[C@H]1OC(O)[C@H](O)[C@@H](O)[C@@H]1O (stereo partly shown) [glucose]
Km: 44.3 ± 3.1 mM
